Measured values from patent US20210121426A1, “BLOOD PURIFICATION BY ALKALINIZING AGENT” (TOHOKU UNIVERSITY, priority 2017, published 2021).
Marks after values point to notes of the source that are not given here.

How the values were obtained:
indoxyl sulfate = experiment: Urine indoxyl sulfate (IS) corrected by urinary specific gravity; assay type: in vivo, human
Excerpt: Medical Examination, Vol. 44, No. 1, 1995, pages 79-83 by Tetsuo Aoki et al. was referred to. A urinary specific gravity 1.022 was converted into a reference value.
Specific gravity correction value (unit/1.022·UG)=actual measurement value×(1.022−1.000)/(specific gravity value−1.000)

argininosuccinic acid = experiment: Human clinical trial in CKD patients: argininosuccinic acid in plasma and early morning urine (LC-MS/MS); assay type: in vivo; parameters: key to Influence on concentration of ASA / Influence on ASA U/P ratio: Excellent effects: ◯; Poor effects: X; No significant difference: —; (◯): whether or not there is an effect of promoting excretion of indoxyl sulfate into the urine cannot be determined
Experimental: (§1) 1. […] Patients were assigned to each group so that age, sex, presence of diabetes, and eGFR were not biased. Each group was treated according to the “CKD medical care guide-summary of treatment” (hereinafter referred to as standard treatment).
(§2) An alkalinizing agent was not administered to the control group. […] A pH of early morning urine was controlled over time so that the dosage could be increased up to 6 tablets, 3 times a day (morning, noon, evening) as needed according to the discretion of the physician in cases where a pH of early morning urine was less than pH 6.5. To the group B, 3 tablets a day in which each tablet contained 500 mg of sodium bicarbonate were orally administered 3 times a day (morning, noon, evening) for 24 weeks. A pH of early morning urine was controlled over time so that the dosage could be increased up to 6 tablets, 3 times a day (morning, noon, evening) as needed according to the discretion of the physician in cases where a pH of early morning urine was less than pH 6.5.
(§3) Early morning urine and blood were collected before the start of administration, and 6 weeks, 12 weeks, and 24 weeks after the start of administration, and each specimen was stored at −80° C. Methods used in the present field for indoxyl sulfate, p-cresyl sulfate, phenylacetyl-L-glutamine, hippuric acid, and argininosuccinic acid in urine and blood (Sato, E., et. al., Metabolic alteration by indoxyl sulfate in skeletal muscle induce uremic sarcopenia in chronic kidney disease., Sci Rep. 2016 Nov. 10; 6:36618. doi: 10.1038/srep36618, and the like) were referred to, and quantitative analysis was performed using the following liquid chromatography triple quadrupole mass spectrometer (LC-MS/MS).
(§4) For LC, NANOSPACE SI-2 (manufactured by Shiseido) was used, and […] MGM was selected as the analytical column.
(§5) For MS, TSQ Quantiva (manufactured by Thermo Fisher Scientific Co., Ltd.) was used, and five compounds were ionized in the negative mode and detected using the Selected Reaction Monitoring method. The quantitative value was calculated using a calibration curve prepared with a standard solution of each compound.
(§6) For statistical analysis, the Mann-Whitney test was used for comparison between groups, and the Wilcoxon test was used for comparison of changes over time. The Pearson test was used for correlation.
(§7) Then, the average value and SD of each group were calculated for (i) to (ix) above. For each of (iv) to (ix) above, the average value and SD of each group were calculated for all data of 6 weeks, 12 weeks, and 24 weeks after the start of administration in each group.

p-cresyl sulfate = experiment: Human clinical trial in CKD patients: p-cresyl sulfate in plasma and early morning urine (LC-MS/MS); assay type: in vivo; parameters: key to Influence on concentration of PCS / Influence on PCS U/P ratio: Excellent effects: ◯; Poor effects: X; No significant difference: —; (◯): whether or not there is an effect of promoting excretion of indoxyl sulfate into the urine cannot be determined
Experimental: as §1, §2, §3, §4, §5, §6, §7

[1] = 0 W, before the start of administration
[2] = 6-24 W, all data of 6, 12 and 24 weeks
[3] = Plasma, comparison with reference drug
[4] = Urine, comparison with reference drug
[5] = compared to before administration

## O=C([O-])O.[Na+] [Bicarbonate, sodium bicarbonate]
Indoxyl sulfate; 6-24 W, all data
  Urine IS, specific gravity corrected: 76.7 ± 38.0 μg · mL^−1/1.022 · UG
  Urine IS, specific gravity corrected, % Relative value vs week 0: 89 ± 45%
  Urine IS, specific gravity corrected, difference vs week 0: −15.9 ± 34.4 μg · mL^−1/1.022 · UG
Indoxyl sulfate; 6 W
  Urine IS, specific gravity corrected: 83.3 ± 41.9 μg · mL^−1/1.022 · UG
  Urine IS, specific gravity corrected, % Relative value vs week 0: 95 ± 30%
  Urine IS, specific gravity corrected, difference vs week 0: −9.3 ± 27.7 μg · mL^−1/1.022 · UG
Indoxyl sulfate; 12 W
  Urine IS, specific gravity corrected, % Relative value vs week 0: 77 ± 42%
  Urine IS, specific gravity corrected, difference vs week 0: −27.0 ± 32.9^ μg · mL^−1/1.022 · UG
Indoxyl sulfate; 24 W
  Urine IS, specific gravity corrected: 81.1 ± 41.6 μg · mL^−1/1.022 · UG
  Urine IS, specific gravity corrected, % Relative value vs week 0: 95 ± 59%
  Urine IS, specific gravity corrected, difference vs week 0: −11.4 ± 40.8 μg · mL^−1/1.022 · UG
Argininosuccinic acid; [1]
  Arginino Succinic Acid-Urine/Plasma ratio: 3.82 ± 4.93
  Plasma Arginino Succinic Acid: 1178 ± 655 ng/mL
  Urine Arginino Succinic Acid (early morning urine): 2911 ± 1691 ng/mL
Argininosuccinic acid; [2]
  ASA - Urine/Plasma ratio, change from week 0: 1.15 ± 7.87
  Arginino Succinic Acid-Urine/Plasma ratio: 4.97 ± 7.98
  Plasma Arginino Succinic Acid: 1327 ± 1416 ng/mL
  Plasma Arginino Succinic Acid, change from week 0: 148.9 ± 1134 ng/mL
  Urine Arginino Succinic Acid (early morning urine): 3071 ± 2386 ng/mL
  Urine Arginino Succinic Acid, change from week 0: 160.2 ± 1756 ng/mL
Argininosuccinic acid; 6 W
  ASA - Urine/Plasma ratio, change from week 0: 1.93 ± 7.90
  Arginino Succinic Acid-Urine/Plasma ratio: 5.75 ± 9.80
  Plasma Arginino Succinic Acid: 1245 ± 748 ng/mL
  Plasma Arginino Succinic Acid, change from week 0: 66.5 ± 565.5 ng/mL
  Urine Arginino Succinic Acid (early morning urine): 3346 ± 2636 ng/mL
  Urine Arginino Succinic Acid, change from week 0: 434.7 ± 1299 ng/mL
Argininosuccinic acid; 6 to 24 weeks, urine/plasma ratio
  effect of excretion of argininosuccinic acid from blood into urine: more strongly recognized
Argininosuccinic acid; 12 W
  ASA - Urine/Plasma ratio, change from week 0: −1.01 ± 4.47
  Arginino Succinic Acid-Urine/Plasma ratio: 2.81 ± 1.86
  Plasma Arginino Succinic Acid: 1576 ± 2160 ng/mL
  Plasma Arginino Succinic Acid, change from week 0: 397.7 ± 1733 ng/mL
  Urine Arginino Succinic Acid (early morning urine): 2647 ± 2123 ng/mL
  Urine Arginino Succinic Acid, change from week 0: -264.1 ± 1491 ng/mL
Argininosuccinic acid; 24 W
  ASA - Urine/Plasma ratio, change from week 0: 2.54 ± 10.20^a
  Arginino Succinic Acid-Urine/Plasma ratio: 6.36 ± 9.60
  Plasma Arginino Succinic Acid: 1160 ± 977 ng/mL
  Plasma Arginino Succinic Acid, change from week 0: -17.6 ± 776.9 ng/mL
  Urine Arginino Succinic Acid (early morning urine): 3221 ± 2466 ng/mL
  Urine Arginino Succinic Acid, change from week 0: 309.9 ± 2335 ng/mL
Argininosuccinic acid; Plasma, comparison with Cont
  Influence on concentration of ASA: —
Argininosuccinic acid; [3]
  Influence on concentration of ASA: —
Argininosuccinic acid; comparison with Cont
  Influence on ASA U/P ratio: —
Argininosuccinic acid; comparison with reference drug
  Influence on ASA U/P ratio: —
Argininosuccinic acid; Urine, comparison with Cont
  Influence on concentration of ASA: —
Argininosuccinic acid; [4]
  Influence on concentration of ASA: —
p-cresyl sulfate; [1]
  Plasma p-Cresyl Sulfate: 5402 ± 5209 ng/mL
  Urine p-Cresyl Sulfate (early morning urine): 66164 ± 97704 ng/mL
  p-Cresyl Sulfate-Urine/Plasma ratio: 15.6 ± 11.1
p-cresyl sulfate; [2]
  Plasma p-Cresyl Sulfate: 4187 ± 4354 ng/mL
  Plasma p-Cresyl Sulfate, change from week 0: -1038 ± 2773 ng/mL
  Urine p-Cresyl Sulfate (early morning urine): 52501 ± 73583 ng/mL
  Urine p-Cresyl Sulfate, change from week 0: -13663 ± 74566 ng/mL
  p-Cresyl Sulfate-Urine/Plasma ratio: 16.8 ± 13.9 ^d
  p-Cresyl Sulfate-Urine/Plasma ratio, change from week 0: 1.20 ± 11.45
p-cresyl sulfate; 6 W
  Plasma p-Cresyl Sulfate: 4506 ± 5300 ng/mL
  Plasma p-Cresyl Sulfate, change from week 0: -895.9 ± 2153 ng/mL
  Urine p-Cresyl Sulfate (early morning urine): 67744 ± 105548 ng/mL
  Urine p-Cresyl Sulfate, change from week 0: 1580 ± 51468 ng/mL
  p-Cresyl Sulfate-Urine/Plasma ratio: 17.0 ± 12.0
  p-Cresyl Sulfate-Urine/Plasma ratio, change from week 0: 1.39 ± 8.25
p-cresyl sulfate; 12 W
  Plasma p-Cresyl Sulfate: 3771 ± 4139 ng/mL
  Plasma p-Cresyl Sulfate, change from week 0: -1103 ± 2478 ng/mL
  Urine p-Cresyl Sulfate (early morning urine): 37730 ± 48411 ng/mL
  Urine p-Cresyl Sulfate, change from week 0: -28434 ± 72253 ng/mL
  p-Cresyl Sulfate-Urine/Plasma ratio: 16.5 ± 17.9
  p-Cresyl Sulfate-Urine/Plasma ratio, change from week 0: 0.91 ± 15.68
p-cresyl sulfate; 24 W
  Plasma p-Cresyl Sulfate: 4284 ± 3682 ng/mL
  Plasma p-Cresyl Sulfate, change from week 0: -1119 ± 3631 ng/mL
  Urine p-Cresyl Sulfate (early morning urine): 52029 ± 57779 ng/mL
  Urine p-Cresyl Sulfate, change from week 0: -14163 ± 95244 ng/mL
  p-Cresyl Sulfate-Urine/Plasma ratio: 17.0 ± 11.8 ^c
  p-Cresyl Sulfate-Urine/Plasma ratio, change from week 0: 1.31 ± 9.81
p-cresyl sulfate; Plasma, comparison with Cont
  Influence on concentration of PCS: —
p-cresyl sulfate; [3]
  Influence on concentration of PCS: ◯
p-cresyl sulfate; comparison with Cont
  Influence on PCS U/P ratio: ◯
p-cresyl sulfate; comparison with reference drug
  Influence on PCS U/P ratio: —
p-cresyl sulfate; Urine, comparison with Cont
  Influence on concentration of PCS: —
p-cresyl sulfate; [4]
  Influence on concentration of PCS: X
p-cresyl sulfate; [5]
  concentration of p-cresyl sulfate in plasma: decreased
  concentration of p-cresyl sulfate in urine: such an effect was not recognized
